Laboratory results from PubChem BioAssay (NCI).
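Interpolation was linear, between the two tested concentrations surrounding the appropriate level; five concentrations were tested over 48 hours in 96-well plates. TGI: total growth inhibition.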

Assays:
Assay in all cases: inhibition of tumour cell growth, NCI panel, 48 h
[1] = system: RXF 393 renal
[2] = system: M19-MEL melanoma
[3] = system: HOP-18 NSCLC
[4] = system: HT29 colon
[5] = system: M14 melanoma
[6] = system: DMS 114 small cell lung
[7] = system: NCI-H23 lung
[8] = system: EKVX NSCLC
[9] = system: COLO 205 colon
[10] = system: HL-60(TB) leukemia
[11] = system: OVCAR-5 ovarian
[12] = system: ACHN renal
[13] = system: NCI-H226 lung
[14] = system: SF-539 CNS
[15] = system: IGROV1 ovarian
[16] = system: SNB-78 CNS
[17] = system: HOP-92 NSCLC
[18] = system: SF-295 CNS
[19] = system: U251 CNS
[20] = system: HCT-15 colon
[21] = system: TK-10 renal
[22] = system: CCRF-CEM leukemia
[23] = system: SK-OV-3 ovarian
[24] = system: NCI-H460 lung
[25] = system: HOP-62 NSCLC
[26] = system: UACC-257 melanoma
[27] = system: SN12C renal
[28] = system: OVCAR-3 ovarian
[29] = system: OVCAR-4 ovarian
[30] = system: SK-MEL-2 melanoma
[31] = system: SNB-75 CNS
[32] = system: OVCAR-8 ovarian
[33] = system: MALME-3M melanoma
[34] = system: UO-31 renal
[35] = system: LXFL 529 NSCLC
[36] = system: SF-268 CNS
[37] = system: SNB-19 CNS
[38] = system: RXF-631 renal
[39] = system: SK-MEL-5 melanoma
[40] = system: UACC-62 melanoma
[41] = system: KM12 colon
[42] = system: NCI-H522 lung
[43] = system: 786-0 renal
[44] = system: RPMI-8226 leukemia
[45] = system: SW-620 colon
[46] = system: DLD-1 colon
[47] = system: HCT-116 colon
[48] = system: A498 renal
[49] = system: XF 498 CNS
[50] = system: LOX IMVI melanoma
[51] = system: KM20L2 colon
[52] = system: SK-MEL-28 melanoma
[53] = system: A549 NSCLC
[54] = system: HCC-2998 colon
[55] = system: DU-145 prostate
[56] = system: SR leukemia
[57] = system: K-562 leukemia
[58] = system: MOLT-4 leukemia

Measured: TGI

CCCCCCCCCCCCCC(=O)NCO
> 100 µM: [1] | [2] | [3] | [4] | [5] | [6] | [7] | [8] | [9] | [10] | [11] | [12] | [13] | [14] | [15] | [16] | [17] | [18] | [19] | [20] | [21] | [22] | [23] | [24] | [25] | [26] | [27] | [28] | [29] | [30] | [31] | [32] | [33] | [34] | [35] | [36] | [37] | [38] | [39] | [40] | [41] | [42] | [43] | [44] | [45] | [46] | [47] | [48] | [49] | [50] | [51] | [52] | [53] | [54]

C=C=C(Sc1ccccc1)C(C)(C)O
> 100 µM: [1] | [2] | [3] | [4] | [5] | [7] | [9] | [10] | [11] | [12] | [13] | [14] | [15] | [17] | [18] | [19] | [20] | [21] | [22] | [23] | [24] | [26] | [27] | [28] | [55] | [29] | [30] | [31] | [32] | [33] | [34] | [35] | [36] | [56] | [37] | [38] | [40] | [57] | [41] | [42] | [58] | [43] | [44] | [45] | [46] | [47] | [48] | [49] | [50] | [51] | [52] | [54]
